Reference: patent publication US6737383B1, “Herbicidal oxadiazolidines” (priority 1999, dated 2004)

Assays:
wheat = experiment: Test B pre/postemergence wheat; assay type: in vivo, Triticum aestivum; settings: for Plant response rating, Wheat: scale of 0 to 10 where 0 is no effect and 10 is complete control
Summary of the method: (§1)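 Test chemicals in a non-phytotoxic solvent mixture with surfactant were sprayed preemergence onto planted seeds and postemergence onto plants 2 to 18 cm tall (1- to 4-leaf stage). After twelve to sixteen days in a greenhouse, injury was visually rated against untreated controls from 0 (no effect) to 10 (complete control).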

rape = experiment: Test B pre/postemergence rape; assay type: in vivo, Brassica napus; settings: for Plant response rating, Rape: scale of 0 to 10 where 0 is no effect and 10 is complete control
Summary of the method: as §1

purple nutsedge = experiment: Test B pre/postemergence purple nutsedge; assay type: in vivo, Cyperus rotundus; settings: for Plant response rating, Nutsedge: scale of 0 to 10 where 0 is no effect and 10 is complete control
Summary of the method: as §1

wild oat = experiment: Test B pre/postemergence wild oat; assay type: in vivo, Avena fatua; settings: for Plant response rating, Wild oats: scale of 0 to 10 where 0 is no effect and 10 is complete control
Summary of the method: as §1

smallflower flatsedge = experiment: Test B flood test smallflower flatsedge; assay type: in vivo, Cyperus difformis
Summary of the method: (§2)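 Plants were grown to the 2-leaf stage before treatment with test chemical, then held in a greenhouse for twelve to sixteen days. Injury was visually rated against untreated controls on a 0–10 scale, where 0 is no effect and 10 is complete control.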

velvetleaf = experiment: Test B pre/postemergence velvetleaf; assay type: in vivo, Abutilon theophrasti; settings: for Plant response rating, Velvetleaf: scale of 0 to 10 where 0 is no effect and 10 is complete control
Summary of the method: as §1

bedstraw = experiment: Test B pre/postemergence bedstraw; assay type: in vivo, Galium aparine; settings: Postemergence
Summary of the method: as §1

pigweed = experiment: Test B pre/postemergence pigweed; assay type: in vivo, Amaranthus retroflexus; settings: for Plant response rating, Redroot pigweed: scale of 0 to 10 where 0 is no effect and 10 is complete control
Summary of the method: as §1

giant foxtail = experiment: Test B pre/postemergence giant foxtail; assay type: in vivo, Setaria faberii
Summary of the method: as §1

surinam grass = experiment: Test B pre/postemergence surinam grass; assay type: in vivo, Brachiaria decumbens
Summary of the method: as §1

soybean = experiment: Test B pre/postemergence soybean; assay type: in vivo, Glycine max; settings: for Plant response rating, Soybean: scale of 0 to 10 where 0 is no effect and 10 is complete control
Summary of the method: as §1

sugar beet = experiment: Test B pre/postemergence sugar beet; assay type: in vivo, Beta vulgaris; settings: for Plant response rating, Sugarbeets: scale of 0 to 10 where 0 is no effect and 10 is complete control
Summary of the method: as §1

corn = experiment: Test B pre/postemergence corn; assay type: in vivo, Zea mays
Summary of the method: as §1

duck salad = experiment: Test B flood test duck salad; assay type: in vivo, Heteranthera limosa
Summary of the method: as §2

rice = experiment: Test B flood test rice; assay type: in vivo, Oryza sativa
Summary of the method: as §2

cocklebur = experiment: Test B pre/postemergence cocklebur; assay type: in vivo, Xanthium strumarium
Summary of the method: as §1

[1] = Postemergence, Rate 250 g/ha, scale 0 to 10
[2] = Preemergence, Rate 250 g/ha, scale 0 to 10, 0 is no effect, 10 is complete control
[3] = Preemergence, Rate 500 g/ha, scale 0 to 10, 0 is no effect, 10 is complete control
[4] = Rate 62 g/ha, Postemergence, scale 0 to 10, 0 no effect, 10 complete control
[5] = Rate 125 g/ha, Postemergence, scale 0 to 10, 0 is no effect, 10 is complete control
[6] = Rate 62 g/ha, flood test species, Pre-emergence, visual evaluation after twelve to sixteen days
[7] = Rate 125 g/ha, under heading Pre-emergence, flood test species, visual evaluation after twelve to sixteen days
[8] = Rate 250 g/ha, Pre-emergence (flood test species), scale 0 to 10, 0 is no effect, 10 is complete control
[9] = Rate 500 g/ha, Pre-emergence, flood test species, scale 0 to 10 (0 no effect, 10 complete control)
[10] = Postemergence, Rate 500 g/ha, scale of 0 to 10 where 0 is no effect and 10 is complete control
[11] = Preemergence, Rate 62 g/ha, scale of 0 to 10 where 0 is no effect and 10 is complete control
[12] = Preemergence, Rate 125 g/ha, scale of 0 to 10 where 0 is no effect and 10 is complete control

SMILES: CC(C)N(C(=O)n1oc(=O)n(C(C)C#N)c1=O)c1ccc(Cl)cc1 (centres unmarked) [Compound 451]
- Wheat plant response rating (wheat; [1]): 0
- Plant response rating, Wheat (wheat; Preemergence, Rate 62 g/ha): 0
- Plant response rating, Wheat (wheat; Preemergence, Rate 125 g/ha): 0
- Wheat plant response rating (wheat; [2]): 0
- Wheat plant response rating (wheat; [3]): 0
- Wheat plant response rating (wheat; [4]): 0
- Wheat plant response rating (wheat; [5]): 0
- Rape plant response rating (rape; [1]): 0
- Plant response rating, Rape (rape; Preemergence, Rate 62 g/ha): 0
- Plant response rating, Rape (rape; Preemergence, Rate 125 g/ha): 0
- Rape plant response rating (rape; [2]): 0
- Rape plant response rating (rape; [3]): 0
- Rape plant response rating (rape; [4]): 0
- Rape plant response rating (rape; [5]): 0
- Nutsedge plant response rating (purple nutsedge; [1]): 0
- Plant response rating, Nutsedge (purple nutsedge; Preemergence, Rate 62 g/ha): 0
- Plant response rating, Nutsedge (purple nutsedge; Preemergence, Rate 125 g/ha): 0
- Nutsedge plant response rating (purple nutsedge; [3]): 0
- Nutsedge plant response rating (purple nutsedge; [4]): 0
- Nutsedge plant response rating (purple nutsedge; [5]): 0
- Wild oats plant response rating (wild oat; [1]): 0
- Plant response rating, Wild oats (wild oat; Preemergence, Rate 62 g/ha): 0
- Plant response rating, Wild oats (wild oat; Preemergence, Rate 125 g/ha): 0
- Wild oats plant response rating (wild oat; [2]): 0
- Wild oats plant response rating (wild oat; [3]): 0
- Wild oats plant response rating (wild oat; [4]): 0
- Wild oats plant response rating (wild oat; [5]): 0
- Plant response rating, S. Flatsedge (0 to 10 scale, 0 is no effect, 10 is complete control) (smallflower flatsedge; [6]): 0
- S. Flatsedge plant response rating (0 to 10 scale, 0 is no effect, 10 is complete control) (smallflower flatsedge; [7]): 0
- S. Flatsedge plant response rating (smallflower flatsedge; [8]): 0
- S. Flatsedge plant response rating (smallflower flatsedge; [9]): 0
- Velvetleaf plant response rating (velvetleaf; [1]): 0
- Plant response rating, Velvetleaf (velvetleaf; Preemergence, Rate 62 g/ha): 0
- Plant response rating, Velvetleaf (velvetleaf; Preemergence, Rate 125 g/ha): 0
- Velvetleaf plant response rating (velvetleaf; [2]): 0
- Velvetleaf plant response rating (velvetleaf; [3]): 0
- Velvetleaf plant response rating (velvetleaf; [4]): 0
- Velvetleaf plant response rating (velvetleaf; [5]): 0
- Bedstraw plant response rating (bedstraw; Rate 62 g/ha, scale 0 to 10, 0 no effect, 10 complete control): 0
- Bedstraw plant response rating (bedstraw; Rate 125 g/ha, scale 0 to 10, 0 is no effect, 10 is complete control): 0
- Redroot pigweed plant response rating (pigweed; [1]): 0
- Plant response rating, Redroot pigweed (pigweed; Preemergence, Rate 62 g/ha): 0
- Plant response rating, Redroot pigweed (pigweed; Preemergence, Rate 125 g/ha): 0
- Redroot pigweed plant response rating (pigweed; [2]): 0
- Redroot pigweed plant response rating (pigweed; [3]): 0
- Redroot pigweed plant response rating (pigweed; [4]): 0
- Redroot pigweed plant response rating (pigweed; [5]): 0
- Giant foxtail plant response rating (giant foxtail; [1]): 3
- Giant foxtail plant response rating (giant foxtail; [10]): 7
- Plant response rating, Giant foxtail (giant foxtail; [11]): 0
- Plant response rating, Giant foxtail (giant foxtail; [12]): 0
- Giant foxtail plant response rating (giant foxtail; [2]): 4
- Giant foxtail plant response rating (giant foxtail; [3]): 7
- Giant foxtail plant response rating (giant foxtail; [4]): 0
- Giant foxtail plant response rating (giant foxtail; [5]): 0
- B. signalgrass plant response rating (surinam grass; Postemergence, Rate 250 g/ha, scale 0 to 10, 0 no effect, 10 complete control): 0
- B. signalgrass plant response rating (surinam grass; [10]): 2
- Plant response rating, B. signalgrass (surinam grass; [11]): 0
- Plant response rating, B. signalgrass (surinam grass; [12]): 0
- B. signalgrass plant response rating (surinam grass; [2]): 0
- B. signalgrass plant response rating (surinam grass; [3]): 0
- B. signalgrass plant response rating (surinam grass; [4]): 0
- B. signalgrass plant response rating (surinam grass; [5]): 0
- Soybean plant response rating (soybean; [1]): 1
- Plant response rating, Soybean (soybean; Preemergence, Rate 62 g/ha): 0
- Plant response rating, Soybean (soybean; Preemergence, Rate 125 g/ha): 0
- Soybean plant response rating (soybean; [2]): 0
- Soybean plant response rating (soybean; [3]): 0
- Soybean plant response rating (soybean; [4]): 0
- Soybean plant response rating (soybean; [5]): 1
- Sugarbeets plant response rating (sugar beet; [1]): 0
- Plant response rating, Sugarbeets (sugar beet; Preemergence, Rate 62 g/ha): 0
- Plant response rating, Sugarbeets (sugar beet; Preemergence, Rate 125 g/ha): 0
- Sugarbeets plant response rating (sugar beet; [2]): 0
- Sugarbeets plant response rating (sugar beet; [3]): 0
- Sugarbeets plant response rating (sugar beet; [4]): 0
- Sugarbeets plant response rating (sugar beet; [5]): 0
- Corn plant response rating (corn; [1]): 0
- Corn plant response rating (corn; [10]): 0
- Plant response rating, Corn (corn; [11]): 0
- Plant response rating, Corn (corn; [12]): 0
- Corn plant response rating (corn; [2]): 0
- Corn plant response rating (corn; [3]): 0
- Corn plant response rating (corn; [4]): 0
- Corn plant response rating (corn; [5]): 0
- Plant response rating, Ducksalad (0 to 10 scale, 0 is no effect, 10 is complete control) (duck salad; [6]): 0
- Ducksalad plant response rating (0 to 10 scale, 0 is no effect, 10 is complete control) (duck salad; [7]): 0
- Ducksalad plant response rating (duck salad; [8]): 0
- Ducksalad plant response rating (duck salad; [9]): 0
- Plant response rating, Rice (0 to 10 scale, 0 is no effect, 10 is complete control) (rice; [6]): 0
- Rice plant response rating (0 to 10 scale, 0 is no effect, 10 is complete control) (rice; [7]): 0
- Rice plant response rating (rice; [8]): 0
- Rice plant response rating (rice; [9]): 0
- Cocklebur plant response rating (cocklebur; [1]): 0
- Cocklebur plant response rating (cocklebur; [10]): 0
- Plant response rating, Cocklebur (cocklebur; [11]): 0
- Plant response rating, Cocklebur (cocklebur; [12]): 0
- Cocklebur plant response rating (cocklebur; [2]): 0
- Cocklebur plant response rating (cocklebur; [3]): 0
- Cocklebur plant response rating (cocklebur; [4]): 0
- Cocklebur plant response rating (cocklebur; [5]): 0
